Source: ChEMBL document CHEMBL3232901, “Design, synthesis, and pharmacological evaluation of fluorinated tetrahydrouridine derivatives as inhibitors of cytidine deaminase” (J Med Chem, 2014)

How the values were obtained:
[1] = Chemical stability in simulated gastric fluid assessed as compound remaining after 2 hrs at pH 1.2 at 37 degC; type: ADME, physicochemical, Stomach; details: read-out: Stability
[2] = Chemical stability in simulated gastric fluid assessed as compound remaining after 10 mins at pH 1.2 at 37 degC; type: ADME, physicochemical, Stomach; details: read-out: Stability

O=C1NC(O)CCN1[C@@H]1O[C@H](CO)[C@@H](O)[C@H]1O (mixture of isomers) [TETRAHYDROURIDINE]
remaining at 2 h [1]: 15%
remaining at 10 min [2]: 50%
